This assay has as its system L1210 leukemia ip in BDF1 mice, survival T/C. The assay can be described thus: NCI In Vivo Anticancer Drug Screen. Data for tumor model L1210 Leukemia (intraperitoneal) in B6D2F1 (BDF1) mice. The following applies: endpoint: mean survival time, higher = longer survival. Summed up:
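Antitumor effect is assessed in tumor-bearing animals. Survival in the compound arm is compared with a vehicle-dosed control arm and expressed as their quotient.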

[1] abbreviates: dose: 100.0 mg/kg/injection, schedule: Q04DX002 (ip), vehicle: saline.
Setting [2] is: dose: 200.0 mg/kg/injection, schedule: Q04DX002 (ip), vehicle: saline.
[3] abbreviates: dose: 400.0 mg/kg/injection, schedule: Q04DX002 (ip), vehicle: saline.
The mark [4] stands for this setting: dose: 100.0 mg/kg/injection, schedule: Q01DX009 (ip), vehicle: saline with Tween-80.
The mark [5] stands for this setting: dose: 200.0 mg/kg/injection, schedule: Q01DX009 (ip), vehicle: saline with Tween-80.
The mark [6] stands for this setting: dose: 100.0 mg/kg/injection, schedule: Q04DX002 (ip), vehicle: Klucel (hydroxypropylcellulose) (HPC).
Setting [7] is: dose: 200.0 mg/kg/injection, schedule: Q04DX002 (ip), vehicle: Klucel (hydroxypropylcellulose) (HPC).
The mark [8] stands for this setting: dose: 100.0 mg/kg/injection, schedule: Q04DX003 (ip), vehicle: saline with Tween-80.
The mark [9] stands for this setting: dose: 200.0 mg/kg/injection, schedule: Q04DX003 (ip), vehicle: saline with Tween-80.
The mark [10] stands for this setting: dose: 10.0 mg/kg/injection, schedule: Q01DX001 (ip), vehicle: saline.
The mark [11] stands for this setting: dose: 20.0 mg/kg/injection, schedule: Q01DX001 (ip), vehicle: saline.
The mark [12] stands for this setting: dose: 40.0 mg/kg/injection, schedule: Q01DX001 (ip), vehicle: saline.
Setting [13] is: dose: 100.0 mg/kg/injection, schedule: Q01DX009 (ip), vehicle: saline.
The mark [14] stands for this setting: dose: 100.0 mg/kg/injection, schedule: Q04DX003 (ip), vehicle: saline.
Where [15] appears, read: dose: 200.0 mg/kg/injection, schedule: Q01DX009 (ip), vehicle: saline.
Setting [16] is: dose: 200.0 mg/kg/injection, schedule: Q04DX003 (ip), vehicle: saline.
[17] abbreviates: dose: 400.0 mg/kg/injection, schedule: Q04DX003 (ip), vehicle: saline.

“And” between values parts separate entries of the source, which are not always exact repeats. Identical values can stand only once. Inconclusive results and toxic doses are left out.

Turning to `CCC#CC(=O)OCCCCCC`, the T/C reads like this: under setting [1], 107 % of control; under setting [2], 100 % of control; under setting [3], 103 % of control.

Take `Cc1ccc(Cl)cc1NS(=O)(=O)c1cccc([N+](=O)[O-])c1`: the T/C was 94 % of control under setting [4] and 90 % of control under setting [5].

Turning to `O=C(/C=C\c1cccc([N+](=O)[O-])c1)c1ccc(F)cc1`, the T/C reads like this: under setting [6], 100 % of control; under setting [7], 94 % of control; (dose: 400.0 mg/kg/injection, schedule: Q04DX002 (ip), vehicle: Klucel (hydroxypropylcellulose) (HPC)) 98 % of control.

As to `CCc1ccccc1NC(=O)Nc1ccccc1C(N)=O`, the T/C is 87 % of control (dose: 100.0 mg/kg/injection, schedule: Q01DX009 (ip), vehicle: Klucel (hydroxypropylcellulose) (HPC)); 93 % of control (dose: 200.0 mg/kg/injection, schedule: Q01DX009 (ip), vehicle: Klucel (hydroxypropylcellulose) (HPC)); 93 % of control (dose: 400.0 mg/kg/injection, schedule: Q01DX009 (ip), vehicle: Klucel (hydroxypropylcellulose) (HPC)).

As to `O/N=C(/C(=N/O)c1ccccc1)c1ccccc1.O/N=C(/C(=N/O)c1ccccc1)c1ccccc1.[Pd]`, the T/C (dose: 50.0 mg/kg/injection, schedule: Q04DX002 (ip), vehicle: Klucel (hydroxypropylcellulose) (HPC)) was 106 % of control; the T/C under setting [6] was 95 % of control; the T/C under setting [7] is 103 % of control.

In the case of `CC1OC(c2ccccc2)OC2COC(c3ccccc3)OC12` (configuration not stated), the T/C is, setting by setting: under setting [8], 102 % of control; under setting [9], 96 % of control; (dose: 400.0 mg/kg/injection, schedule: Q04DX003 (ip), vehicle: saline with Tween-80) 96 % of control.

As for `O=C1c2ccccc2C(=O)N1CCc1ccccn1`, the T/C reads like this: (dose: 50.0 mg/kg/injection, schedule: Q01DX009 (ip), vehicle: saline with Tween-80) 101 % of control; under setting [4], 95 % of control; under setting [8], 102 % of control; under setting [5], 93 % of control; under setting [9], 101 % of control.

On to `N#[N+]c1ccc2[nH]c3ccccc3c(=O)c2c1`, for which the T/C is 105 % of control (dose: 5.0 mg/kg/injection, schedule: Q01DX009 (ip), vehicle: saline); 101 % of control under setting [10]; 102 % of control (dose: 10.0 mg/kg/injection, schedule: Q01DX009 (ip), vehicle: saline); 94 % of control (dose: 10.0 mg/kg/injection, schedule: Q04DX003 (ip), vehicle: saline); 101 % of control under setting [11]; 94 % of control (dose: 20.0 mg/kg/injection, schedule: Q01DX009 (ip), vehicle: saline). In addition, the T/C (dose: 20.0 mg/kg/injection, schedule: Q04DX003 (ip), vehicle: saline) was 97 % of control; the T/C under setting [12] was 104 % of control; the T/C (dose: 40.0 mg/kg/injection, schedule: Q04DX003 (ip), vehicle: saline) is 97 % of control.

As for `COc1ccc(C(OCC2OC(n3nnc4c(=O)[nH]c(N)nc43)CC2OC(C)=O)(c2ccccc2)c2ccc(OC)cc2)cc1` (configuration not stated), the T/C (dose: 12.5 mg/kg/injection, schedule: Q01DX001 (ip), vehicle: Klucel (hydroxypropylcellulose) (HPC)) is 103 % of control; the T/C (dose: 25.0 mg/kg/injection, schedule: Q01DX001 (ip), vehicle: Klucel (hydroxypropylcellulose) (HPC)) is 93 % of control; the T/C (dose: 50.0 mg/kg/injection, schedule: Q01DX001 (ip), vehicle: Klucel (hydroxypropylcellulose) (HPC)) was 97 % of control; the T/C (dose: 400.0 mg/kg/injection, schedule: Q01DX001 (ip), vehicle: Klucel (hydroxypropylcellulose) (HPC)) was 100 % of control.

In the case of `CC(C)(C)CC#N`, the T/C (dose: 5.0 mg/kg/injection, schedule: Q01DX001 (ip), vehicle: saline) is 100 % of control; the T/C under setting [10] was 106 % of control; the T/C under setting [11] was 102 % of control; the T/C under setting [12] is 106 % of control; the T/C (dose: 80.0 mg/kg/injection, schedule: Q01DX001 (ip), vehicle: saline) was 100 % of control; the T/C (dose: 100.0 mg/kg/injection, schedule: Q01DX001 (ip), vehicle: saline) is 94 % of control.

In the case of `CCOC(=O)/C(C#N)=C/c1ccc(O)cc1`, the T/C is 96 % of control (dose: 100.0 mg/kg/injection, schedule: Q01DX Z (ip), vehicle: methylcellulose (MC)) and 96 % of control (dose: 200.0 mg/kg/injection, schedule: Q01DX Z (ip), vehicle: methylcellulose (MC)).

With `CC(O)C(=O)OCCOc1ccc(Cl)cc1Cl` (configuration not stated), the T/C reads like this: (dose: 50.0 mg/kg/injection, schedule: Q01DX009 (ip), vehicle: saline) 670 % of control; under setting [13], 91 % of control; under setting [14], 100 % of control; under setting [15], 95 % of control; under setting [16], 100 % of control; under setting [17], 97 % of control.

For the compound `CCC1=C/C(=C/c2cc(Cl)ccc2O)C(=O)S1`, the T/C is, setting by setting: (dose: 100.0 mg/kg/injection, schedule: Q01DX001 (ip), vehicle: saline with Tween-80) 91 % of control; (dose: 200.0 mg/kg/injection, schedule: Q01DX001 (ip), vehicle: saline with Tween-80) 87 % of control; (dose: 400.0 mg/kg/injection, schedule: Q01DX001 (ip), vehicle: saline with Tween-80) 94 % of control.

With `CCC(C)(C)c1ccc(OCCCCCCN2CCN(c3ccc(C)c(Cl)c3)CC2)cc1`, the T/C (dose: 75.0 mg/kg/injection, schedule: Q01DX001 (ip), vehicle: saline) was 102 % of control and the T/C (dose: 150.0 mg/kg/injection, schedule: Q01DX001 (ip), vehicle: saline) was 110 % of control.

Turning to `Cc1ccc2nc(-c3ccc(N)cc3)sc2c1S(=O)(=O)O`, the T/C by setting is: under setting [13], 100 % of control; under setting [1], 92 % of control; under setting [15], 96 % of control; under setting [2], 105 % of control; (dose: 400.0 mg/kg/injection, schedule: Q01DX009 (ip), vehicle: saline) 110 % of control; under setting [3], 99 % of control.

Take `CN(C)C(CCc1ccccc1)C(=O)O` (configuration not stated): the T/C runs as follows: (dose: 100.0 mg/kg/injection, schedule: Q01DX009 (ip), vehicle: saline sonified) 102 % of control; under setting [14], 102 % of control; (dose: 200.0 mg/kg/injection, schedule: Q01DX009 (ip), vehicle: saline sonified) 95 % of control; under setting [16], 109 % of control; (dose: 400.0 mg/kg/injection, schedule: Q01DX009 (ip), vehicle: saline sonified) 101 % of control; under setting [17], 109 % of control.

In the case of `Cc1ccc(NC(=S)NC(=O)COc2ccccc2)cc1C`, the T/C was 92 % of control (dose: 50.0 mg/kg/injection, schedule: Q01DX001 (ip), vehicle: other); 96 % of control and 108 % of control (dose: 50.0 mg/kg/injection, schedule: Q01DX009 (ip), vehicle: other); 101 % of control and 116 % of control (dose: 50.0 mg/kg/injection, schedule: Q04DX002 (ip), vehicle: other); 95 % of control (dose: 50.0 mg/kg/injection, schedule: Q04DX003 (ip), vehicle: other); 97 % of control (dose: 100.0 mg/kg/injection, schedule: Q01DX001 (ip), vehicle: other); 100 % of control and 86 % of control (dose: 100.0 mg/kg/injection, schedule: Q01DX009 (ip), vehicle: other). Moreover, the T/C reads like this: (dose: 100.0 mg/kg/injection, schedule: Q04DX003 (ip), vehicle: other) 92 % of control; (dose: 200.0 mg/kg/injection, schedule: Q01DX001 (ip), vehicle: other) 101 % of control; (dose: 200.0 mg/kg/injection, schedule: Q01DX009 (ip), vehicle: other) 96 % of control and 90 % of control.

Turning to `CCOC(=O)/C(N=O)=C(/O)c1ccncc1`, the T/C is, setting by setting: (dose: 100.0 mg/kg/injection, schedule: Q04DX003 (ip), vehicle: Klucel (hydroxypropylcellulose) (HPC)) 96 % of control; (dose: 200.0 mg/kg/injection, schedule: Q04DX003 (ip), vehicle: Klucel (hydroxypropylcellulose) (HPC)) 102 % of control.

These data come from PubChem BioAssay AID248 (DTP/NCI, 2004).
